Where “and” joins values, the source holds several entries; their conditions need not be identical. Equal entries are not always repeated. Toxic doses and inconclusive results are not listed. No stated cut-off is given here; in the data, active means T/C of 150% or more; inactive means T/C below 125%.
System: L1210 leukemia ip in BDF1 mice, survival T/C
Test: NCI In Vivo Anticancer Drug Screen. Data for tumor model L1210 Leukemia (intraperitoneal) in B6D2F1 (BDF1) mice
Settings: endpoint: mean survival time, higher = longer survival
Procedure, shortened: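 Value reflects the ratio of survival in compound-treated mice to survival in vehicle-treated controls, with both groups carrying the same transplanted tumor.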

[1] = dose: 100.0 mg/kg/injection, schedule: Q01DX001 (ip), vehicle: saline
[2] = dose: 200.0 mg/kg/injection, schedule: Q01DX001 (ip), vehicle: saline
[3] = dose: 400.0 mg/kg/injection, schedule: Q01DX001 (ip), vehicle: saline
[4] = dose: 100.0 mg/kg/injection, schedule: Q01DX001 (ip), vehicle: Klucel (hydroxypropylcellulose) (HPC)
[5] = dose: 200.0 mg/kg/injection, schedule: Q01DX001 (ip), vehicle: Klucel (hydroxypropylcellulose) (HPC)
[6] = dose: 100.0 mg/kg/injection, schedule: Q01DX009 (ip), vehicle: Klucel (hydroxypropylcellulose) (HPC)
[7] = dose: 200.0 mg/kg/injection, schedule: Q01DX009 (ip), vehicle: Klucel (hydroxypropylcellulose) (HPC)
[8] = dose: 400.0 mg/kg/injection, schedule: Q01DX009 (ip), vehicle: Klucel (hydroxypropylcellulose) (HPC)
[9] = dose: 100.0 mg/kg/injection, schedule: Q04DX003 (ip), vehicle: saline with Tween-80
[10] = dose: 200.0 mg/kg/injection, schedule: Q04DX003 (ip), vehicle: saline with Tween-80
[11] = dose: 400.0 mg/kg/injection, schedule: Q04DX003 (ip), vehicle: saline with Tween-80
[12] = dose: 100.0 mg/kg/injection, schedule: Q04DX003 (ip), vehicle: saline
[13] = dose: 100.0 mg/kg/injection, schedule: Q04DX003 (ip), vehicle: Klucel (hydroxypropylcellulose) (HPC)
[14] = dose: 200.0 mg/kg/injection, schedule: Q04DX003 (ip), vehicle: Klucel (hydroxypropylcellulose) (HPC)
[15] = dose: 100.0 mg/kg/injection, schedule: Q01DX009 (ip), vehicle: saline with Tween-80
[16] = dose: 400.0 mg/kg/injection, schedule: Q04DX003 (ip), vehicle: Klucel (hydroxypropylcellulose) (HPC)

Measured: T/C

CC(C)=CCC(C)c1ccccn1 (stereo not drawn)
inactive: [1] 100 % of control | [2] 100 % of control | [3] 97 % of control

COc1ccc(C(=O)CCN2CCC(O)(c3ccccc3)CC2)cc1
inactive: dose: 12.5 mg/kg/injection, schedule: Q04DX003 (ip), vehicle: saline with Tween-80 100 % of control | dose: 25.0 mg/kg/injection, schedule: Q04DX003 (ip), vehicle: saline with Tween-80 92 % of control | dose: 50.0 mg/kg/injection, schedule: Q04DX003 (ip), vehicle: saline with Tween-80 96 % of control

CC1CCCCN1P(c1ccccc1)N1CCCCC1C (stereo not drawn)
inactive: dose: 100.0 mg/kg/injection, schedule: Q04DX002 (sc), vehicle: olive oil, sesame oil, peanut oil 97 % of control | dose: 200.0 mg/kg/injection, schedule: Q04DX002 (sc), vehicle: olive oil, sesame oil, peanut oil 113 % of control | dose: 400.0 mg/kg/injection, schedule: Q04DX002 (sc), vehicle: olive oil, sesame oil, peanut oil 107 % of control

CC(=O)Oc1ccccc1C1SCSCS1
inactive: [4] 100 % of control | [5] 100 % of control | dose: 400.0 mg/kg/injection, schedule: Q01DX001 (ip), vehicle: Klucel (hydroxypropylcellulose) (HPC) 94 % of control

COC(=O)c1nc[nH]c1N=[N+]=[N-]
inactive: dose: 100.0 mg/kg/injection, schedule: Q01DX001 (ip), vehicle: other 97 % of control

CCOc1cc(/C=N/NC(=O)COCC(=O)N/N=C/c2ccc(O)c(OCC)c2)ccc1O
inactive: [6] 88 % of control | [7] 92 % of control | [8] 97 % of control

Clc1ccc(OCCOc2ccc(Cl)cc2)cc1
inactive: [9] 95 % of control | [10] 92 % of control | [11] 106 % of control

Nc1ncnc(N)c1NC(=O)CCCc1ccc([N+](=O)[O-])cc1
inactive: dose: 50.0 mg/kg/injection, schedule: Q01DX001 (ip), vehicle: Klucel (hydroxypropylcellulose) (HPC) 102 % of control | [4] 98 % of control | [5] 94 % of control

O=C1C2CCC(C2)C1Cl (stereo not drawn)
inactive: dose: 62.5 mg/kg/injection, schedule: Q04DX003 (ip), vehicle: saline with Tween-80 95 % of control | [9] 95 % of control | dose: 125.0 mg/kg/injection, schedule: Q04DX003 (ip), vehicle: saline with Tween-80 103 % of control | [10] 97 % of control | dose: 250.0 mg/kg/injection, schedule: Q04DX003 (ip), vehicle: saline with Tween-80 104 % of control | [11] 100 % of control

CCCCOP(=O)(OCCCC)O/C(C)=C(\C)OP(=O)(OCC)OCC
inactive: dose: 25.0 mg/kg/injection, schedule: Q04DX002 (ip), vehicle: saline 97 % of control and 102 % of control | dose: 25.0 mg/kg/injection, schedule: Q04DX003 (ip), vehicle: saline 102 % of control | dose: 50.0 mg/kg/injection, schedule: Q04DX002 (ip), vehicle: saline 95 % of control and 97 % of control | dose: 50.0 mg/kg/injection, schedule: Q04DX003 (ip), vehicle: saline 108 % of control | [12] 108 % of control | dose: 200.0 mg/kg/injection, schedule: Q04DX002 (ip), vehicle: saline 97 % of control

CCOC(=O)NC1CCCCC1
inactive: dose: 100.0 mg/kg/injection, schedule: Q01DX001 (ip), vehicle: gum acacia 97 % of control | dose: 200.0 mg/kg/injection, schedule: Q01DX001 (ip), vehicle: gum acacia 97 % of control | dose: 400.0 mg/kg/injection, schedule: Q01DX001 (ip), vehicle: gum acacia 105 % of control

CCOC(=O)C1(C(=O)OCC)CCC(O)N1C(=O)c1ccccc1[N+](=O)[O-] (stereo not drawn)
inactive: dose: 50.0 mg/kg/injection, schedule: Q04DX003 (ip), vehicle: Klucel (hydroxypropylcellulose) (HPC) 97 % of control | [13] 91 % of control | [14] 91 % of control

O=C1OC(=O)C2C3C=CC(C3=C(c3ccccc3)c3ccccc3)C12 (stereo not drawn)
inactive: [6] 92 % of control | [15] 97 % of control | [13] 92 % of control | [7] 97 % of control | dose: 200.0 mg/kg/injection, schedule: Q01DX009 (ip), vehicle: saline with Tween-80 100 % of control | [10] 90 % of control | [16] 87 % of control | [11] 92 % of control

C(=C\c1ccccc1)/Cc1ccccc1
inactive: [6] 97 % of control | [13] 101 % of control | [7] 95 % of control | [14] 111 % of control | [8] 103 % of control | [16] 92 % of control

CC(=O)C1CCC2C3CCC4(C)CC(=O)CCC4(C)C3C3OC3C12C (stereo not drawn)
inactive: dose: 100.0 mg/kg/injection, schedule: Q04DX003 (sc), vehicle: steriod suspending solution 98 % of control | dose: 200.0 mg/kg/injection, schedule: Q04DX003 (sc), vehicle: steriod suspending solution 96 % of control | dose: 400.0 mg/kg/injection, schedule: Q04DX003 (sc), vehicle: steriod suspending solution 102 % of control

CC(=O)C1(O)CCC2C3CC=C4CC(O)CCC4(C)C3CCC21C (stereo not drawn)
inactive: dose: 100.0 mg/kg/injection, schedule: Q01DX001 (ip), vehicle: carboxymethylcellulose (CMC) 102 % of control | dose: 100.0 mg/kg/injection, schedule: Q01DX009 (ip), vehicle: carboxymethylcellulose (CMC) 87 % of control and 90 % of control | dose: 100.0 mg/kg/injection, schedule: Q04DX002 (ip), vehicle: carboxymethylcellulose (CMC) 98 % of control and 100 % of control | dose: 100.0 mg/kg/injection, schedule: Q04DX003 (ip), vehicle: carboxymethylcellulose (CMC) 97 % of control | dose: 200.0 mg/kg/injection, schedule: Q01DX001 (ip), vehicle: carboxymethylcellulose (CMC) 94 % of control | dose: 200.0 mg/kg/injection, schedule: Q01DX009 (ip), vehicle: carboxymethylcellulose (CMC) 96 % of control and 97 % of control | dose: 200.0 mg/kg/injection, schedule: Q04DX002 (ip), vehicle: carboxymethylcellulose (CMC) 100 % of control and 110 % of control | dose: 200.0 mg/kg/injection, schedule: Q04DX003 (ip), vehicle: carboxymethylcellulose (CMC) 98 % of control | dose: 400.0 mg/kg/injection, schedule: Q01DX001 (ip), vehicle: carboxymethylcellulose (CMC) 98 % of control | dose: 400.0 mg/kg/injection, schedule: Q01DX009 (ip), vehicle: carboxymethylcellulose (CMC) 93 % of control and 94 % of control | dose: 400.0 mg/kg/injection, schedule: Q04DX002 (ip), vehicle: carboxymethylcellulose (CMC) 97 % of control and 100 % of control | dose: 400.0 mg/kg/injection, schedule: Q04DX003 (ip), vehicle: carboxymethylcellulose (CMC) 88 % of control

COC(=O)C1=NN(C(C)=O)C(c2ccc(C)cc2)(c2ccc(C)cc2)C1
inactive: dose: 100.0 mg/kg/injection, schedule: Q01DX001 (ip), vehicle: steriod suspending solution 105 % of control | dose: 200.0 mg/kg/injection, schedule: Q01DX001 (ip), vehicle: steriod suspending solution 87 % of control | dose: 400.0 mg/kg/injection, schedule: Q01DX001 (ip), vehicle: steriod suspending solution 92 % of control

O=C(OCCn1c(-c2ccccn2)nc2ccccc21)C(O)(c1ccccc1)c1ccccc1
inactive: [4] 102 % of control | [5] 93 % of control

CC1(O)CCCCC1
inactive: [1] 102 % of control | [2] 104 % of control | [3] 96 % of control

COC1c2c(nc3ccccc3c2C(N)=O)-c2ccccc2C1(C)C (stereo not drawn)
inactive: [12] 89 % of control | dose: 200.0 mg/kg/injection, schedule: Q04DX003 (ip), vehicle: saline 103 % of control | dose: 400.0 mg/kg/injection, schedule: Q04DX003 (ip), vehicle: saline 94 % of control

CC1(c2ccc(Cl)s2)C(=O)N(Cl)C(=O)N1Cl (stereo not drawn)
inactive: dose: 12.5 mg/kg/injection, schedule: Q01DX009 (ip), vehicle: saline with Tween-80 95 % of control | dose: 25.0 mg/kg/injection, schedule: Q01DX009 (ip), vehicle: saline with Tween-80 100 % of control | dose: 50.0 mg/kg/injection, schedule: Q01DX009 (ip), vehicle: saline with Tween-80 94 % of control and 89 % of control | [15] 93 % of control | [9] 96 % of control | [10] 98 % of control

O=C(O)c1cccc(I)c1.[Ni]
inactive: dose: 25.0 mg/kg/injection, schedule: Q04DX002 (ip), vehicle: gum acacia 100 % of control | dose: 50.0 mg/kg/injection, schedule: Q04DX002 (ip), vehicle: gum acacia 94 % of control
